Values after ≈ are worked out from the molar mass of the structure shown.
Legend:
[1] = Aqueous solubility at pH 7.4; assay type: physicochemical
Escherichia coli = assay: Antibacterial activity against Escherichia coli AG100A […] by microdilution method; assay type: functional
Staphylococcus aureus [2] = assay: Antibacterial activity against Staphylococcus aureus 29213 by microdilution method; assay type: functional
Staphylococcus aureus [3] = assay: Antibacterial activity against methicillin-resistant Staphylococcus aureus 43300 by microdilution method; assay type: functional
[4] = target: T1, Enoyl-[acyl-carrier-protein] reductase [NADH] FabI (Escherichia coli K-12, UniProt P0AEK4); assay: Inhibition of Escherichia coli FabI assessed as effect on NAD(P)H consumption
T1 sequence (P0AEK4 whole entry): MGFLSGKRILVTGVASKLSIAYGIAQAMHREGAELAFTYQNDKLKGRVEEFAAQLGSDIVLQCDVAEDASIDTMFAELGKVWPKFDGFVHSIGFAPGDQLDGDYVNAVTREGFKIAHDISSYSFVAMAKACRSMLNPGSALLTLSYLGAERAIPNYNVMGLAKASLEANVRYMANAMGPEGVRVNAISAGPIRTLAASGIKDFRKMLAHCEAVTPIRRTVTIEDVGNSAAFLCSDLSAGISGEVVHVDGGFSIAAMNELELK

[5] = target: T2, Enoyl-[acyl-carrier-protein] reductase [NADPH] FabI (Staphylococcus aureus, UniProt Q6GI75); assay: Inhibition of Staphylococcus aureus FabI
T2 sequence (Q6GI75 whole entry): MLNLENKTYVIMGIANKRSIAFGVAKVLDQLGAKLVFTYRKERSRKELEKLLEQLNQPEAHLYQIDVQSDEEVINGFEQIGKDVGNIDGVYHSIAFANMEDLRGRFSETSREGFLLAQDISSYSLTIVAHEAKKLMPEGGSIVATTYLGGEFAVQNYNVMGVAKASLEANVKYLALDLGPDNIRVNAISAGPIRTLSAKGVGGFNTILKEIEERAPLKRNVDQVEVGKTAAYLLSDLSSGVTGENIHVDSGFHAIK

[6] = Aqueous solubility at pH 4.0; assay type: physicochemical

## CN(Cc1cc2ccccc2n1C)C(=O)/C=C/c1cnc2c(c1)CCC(=O)N2
[1]
  solubility: 5.8 µg/mL (≈ 15.5 µM)
Escherichia coli
  MIC: ≤ 0.063 µg/mL
Staphylococcus aureus [2]
  MIC: ≤ 0.016 µg/mL
Staphylococcus aureus [3]
  MIC: 0.016 µg/mL (≈ 0.0427 µM)
[4]
  IC50: 139 nM

## CCCOc1c(CN(C)C(=O)/C=C/c2cnc3c(c2)CC2(CCNCC2)C(=O)N3)cccc1OC
[1]
  solubility: 520 µg/mL (≈ 1090 µM)
Escherichia coli
  MIC: 2 µg/mL (≈ 4.18 µM)
Staphylococcus aureus [2]
  MIC: 0.125 µg/mL (≈ 0.261 µM)
[5]
  IC50: 71 nM
[6]
  solubility: 700 µg/mL (≈ 1460 µM)
Staphylococcus aureus [3]
  MIC: 0.5 µg/mL (≈ 1.04 µM)

## Cc1c(CN(C)C(=O)/C=C/c2cnc3c(c2)CN(CCN2CCOCC2)C(=O)N3)sc2ccccc12
[1]
  solubility: 6.1 µg/mL (≈ 12.1 µM)
Escherichia coli
  MIC: ≤ 0.063 µg/mL
Staphylococcus aureus [2]
  MIC: ≤ 0.063 µg/mL
[5]
  IC50: 26 nM
[6]
  solubility: > 67 µg/mL
Staphylococcus aureus [3]
  MIC: ≤ 0.063 µg/mL
[4]
  IC50: 7 nM

## Cc1c(CN(C)C(=O)/C=C/c2cnc3c(c2)CC2(CCNCC2)C(=O)N3)sc2ccccc12
[1]
  solubility: 4.8 µg/mL (≈ 10.4 µM)
Escherichia coli
  MIC: ≤ 0.063 µg/mL
Staphylococcus aureus [2]
  MIC: ≤ 0.016 µg/mL
[5]
  IC50: 48 nM
[6]
  solubility: 22 µg/mL (≈ 47.8 µM)
Staphylococcus aureus [3]
  MIC: 0.063 µg/mL (≈ 0.137 µM)
[4]
  IC50: 0.4 nM

## Cc1c(CN(C)C(=O)/C=C/c2cnc3c(c2)CCC(=O)N3)sc2ccccc12
Escherichia coli
  MIC: 4 µg/mL (≈ 10.2 µM)
Staphylococcus aureus [2]
  MIC: 0.125 µg/mL (≈ 0.319 µM)
[5]
  IC50: 30 nM
Staphylococcus aureus [3]
  MIC: 0.063 µg/mL (≈ 0.161 µM)

## Cc1c(CN(C)C(=O)/C=C/c2cnc3c(c2)CC2(CCN(C)CC2)C(=O)N3)sc2ccccc12
[1]
  solubility: 110 µg/mL (≈ 232 µM)
Escherichia coli
  MIC: ≤ 0.063 µg/mL
Staphylococcus aureus [2]
  MIC: ≤ 0.016 µg/mL
[5]
  IC50: 14 nM
[6]
  solubility: 360 µg/mL (≈ 758 µM)
Staphylococcus aureus [3]
  MIC: ≤ 0.016 µg/mL
[4]
  IC50: 2.4 nM

## Cc1c(CN(C)C(=O)/C=C/c2cnc3c(c2)CC2(CCN(C)CC2)C(=O)N3)sc2ccc(F)cc12
[1]
  solubility: 110 µg/mL (≈ 223 µM)
Escherichia coli
  MIC: ≤ 0.063 µg/mL
Staphylococcus aureus [2]
  MIC: ≤ 0.016 µg/mL
[5]
  IC50: 28 nM
[6]
  solubility: 790 µg/mL (≈ 1600 µM)
Staphylococcus aureus [3]
  MIC: ≤ 0.016 µg/mL
[4]
  IC50: 24 nM

## Cc1c(CN(C)C(=O)/C=C/c2cnc3c(c2)CC2(CCN(C)CC2)C(=O)N3)oc2ccccc12
[1]
  solubility: 43 µg/mL (≈ 93.8 µM)
Escherichia coli
  MIC: 0.25 µg/mL (≈ 0.545 µM)
Staphylococcus aureus [2]
  MIC: ≤ 0.016 µg/mL
[5]
  IC50: 20 nM
[6]
  solubility: 83 µg/mL (≈ 181 µM)
Staphylococcus aureus [3]
  MIC: ≤ 0.016 µg/mL
[4]
  IC50: 1.8 nM

## CCCOc1c(CN(C)C(=O)/C=C/c2cnc3c(c2)CC2(CCN(C)CC2)C(=O)N3)cccc1OC
[1]
  solubility: 1000 µg/mL (≈ 2030 µM)
Escherichia coli
  MIC: 4 µg/mL (≈ 8.12 µM)
Staphylococcus aureus [2]
  MIC: 0.031 µg/mL (≈ 0.0629 µM)
[5]
  IC50: 26 nM
[6]
  solubility: 1500 µg/mL (≈ 3040 µM)
Staphylococcus aureus [3]
  MIC: 0.125 µg/mL (≈ 0.254 µM)
[4]
  IC50: 55 nM

## CN(Cc1cc2ccccc2n1C)C(=O)/C=C/c1cnc2c(c1)CC1(CCNCC1)C(=O)N2
[1]
  solubility: > 100 µg/mL
Escherichia coli
  MIC: 0.5 µg/mL (≈ 1.13 µM)
Staphylococcus aureus [2]
  MIC: 0.5 µg/mL (≈ 1.13 µM)
[5]
  IC50: 132 nM
[6]
  solubility: > 100 µg/mL
Staphylococcus aureus [3]
  MIC: 2 µg/mL (≈ 4.51 µM)
[4]
  IC50: 17 nM

## Cc1c(CN(C)C(=O)/C=C/c2cnc3c(c2)CC2(CCNCC2)C(=O)N3)oc2ccccc12
[1]
  solubility: 100 µg/mL (≈ 225 µM)
Escherichia coli
  MIC: ≤ 0.063 µg/mL
Staphylococcus aureus [2]
  MIC: 0.031 µg/mL (≈ 0.0697 µM)
[5]
  IC50: 49 nM
[6]
  solubility: 1500 µg/mL (≈ 3370 µM)
Staphylococcus aureus [3]
  MIC: 0.031 µg/mL (≈ 0.0697 µM)
[4]
  IC50: 0.7 nM

— ChEMBL document CHEMBL1155988, “Spiro-naphthyridinone piperidines as inhibitors of S. aureus and E. coli enoyl-ACP reductase (FabI)” (Bioorg Med Chem Lett, 2009)
